Laboratory results from PMC11992618, “Development of cyclopeptide inhibitors specifically disrupting FXR–coactivator interaction in the intestine as a novel therapeutic strategy for MASH” (Life Metabolism, 2025).
pIC50: −log10 of the molar value.

What was measured:
[1] = system: Pxr, Vdr and Nr1i3 target gene expression in organoids; experiment: PXR, VDR and CAR downstream gene expression in organoids; format: cell-based, mouse; conditions: 24 h
Text: (§1) Intestinal crypts were isolated from 6- to 8-week-old C57BL/6 mice and Fxr^△IE mice as previously described with minor revision. Briefly, the abdomen of the mouse was dissected, and the small intestine was isolated with fats removed. The isolated intestine was flushed with cold PBS to remove the luminal contents. Then, the intestine was opened longitudinally and washed three times with PBS gently. The tissue was cut into small fragments (2 mm^2) and further washed three times with cold PBS gently, followed by incubation with 5 mmol/L EDTA-PBS at 4°C. After 40 min, the fragments were vortexed vigorously, and then the suspension was filtered through a […] and centrifuged at 50 g for 10 min. The crypts were counted and plated with Matrigel (1:1, 25 μL) and 500 μL IntestiCult Organoid Growth Medium with Supplements 1 and 2. The isolated crypts were cultured for 3–5 days and treated with indicated chemicals as described.
The intestine and liver were frozen in liquid nitrogen and stored at −80°C. RNA was extracted, and complementary DNA was synthesized from 1 μg total RNA. RT-qPCR was performed on a Bio-Rad CFX384 Touch detection system (Bio-Rad). […] RNA levels were analyzed by 2-^ΔΔCt, normalized to 18S ribosomal RNA and expressed as fold change relative to the control group.
Supplementary Figure S7 Selectivity of DC646. […] Data are presented as the mean ± SEM and analyzed by unpaired t-test.

[2] = molecular target: T1, human FXR alpha (hFXRα)-LBD / SRC2-3 peptide (Homo sapiens, UniProt Q96RI1); experiment: AlphaScreen assay, recruitment of coactivator peptide SRC2-3 to His-hFXRα-LBD; format: biochemical
T1 construct: 100 nmol/L 6*His-hFXRα-LBD and 100 nmol/L biotinylated co-factor peptide
T1 sequence (Q96RI1 262-486 limits assumed): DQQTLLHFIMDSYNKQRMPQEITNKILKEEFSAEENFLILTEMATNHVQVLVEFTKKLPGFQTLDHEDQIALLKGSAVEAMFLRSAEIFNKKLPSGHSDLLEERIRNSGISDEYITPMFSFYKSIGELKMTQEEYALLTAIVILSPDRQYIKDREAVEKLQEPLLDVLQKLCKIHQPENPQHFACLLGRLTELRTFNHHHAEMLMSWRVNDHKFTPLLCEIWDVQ
Experimental: (§2) An AlphaScreen technology-based assay was performed according to the manufacturer’s instructions with a minor revision. Briefly, the experiment was conducted with compounds at the indicated concentrations, 100 nmol/L 6*His-hFXRα-LBD and 100 nmol/L biotinylated co-factor peptide in the buffer containing 50 mmol/L MOPS, 50 μmol/L CHAPS, 50 mmol/L NaF, and 0.1 mg/mL BSA, pH 7.4. The mixture was incubated with 50 μg/mL nickel acceptor beads and 50 μg/mL streptavidin donor beads in a 384-well plate under green light in the dark at room temperature, before conducting fluorescence measurement with excitation at 680 nm and emission at 550 nm on an Envision microplate analyzer (PE 2102-8340, PerkinElmer Life Sciences).

[3] = molecular target: T2, human FXR alpha (hFXRα)-LBD / NcoR2 peptide (Homo sapiens, UniProt Q96RI1); experiment: AlphaScreen assay, recruitment of corepressor peptide NcoR2 to His-hFXRα-LBD; format: biochemical; conditions: DC646 at 11 μmol/L, Ivermectin 5 μmol/L
T2 construct: 100 nmol/L 6*His-hFXRα-LBD and 100 nmol/L biotinylated co-factor peptide
T2 sequence (Q96RI1 262-486 limits assumed): T1 sequence (Q96RI1 262-486 limits assumed)
Experimental: as §2

[4] = system: intestinal FXR-ceramide axis and GLP-1; experiment: HFD-fed mice, ileal FXR signaling, ceramides and serum GLP-1; format: in vivo, mouse; conditions: oral 10 and 30 mg/kg
Experimental: Mice were fasted for 6 h and gavaged with a single dose of 25 mg/kg sitagliptin, followed by 2 g/kg glucose 45 min later. Blood samples were collected 15 min after glucose administration, and GLP-1 was measured using active GLP-1 kits.
(§3) The intestine and liver were frozen in liquid nitrogen and stored at −80°C. RNA was extracted, and complementary DNA was synthesized from 1 μg total RNA. RT-qPCR was performed on a Bio-Rad CFX384 Touch detection system (Bio-Rad). The primer sequences for RT-qPCR are shown in Supplementary Table S5. RNA levels were analyzed by 2-^ΔΔCt, normalized to 18S ribosomal RNA and expressed as fold change relative to the control group.
For ileal lipidomics, samples were homogenized, extracted with chloroform, and prepared for analysis. Separation was achieved using an Acquity UPLC CSH C18 column, and analysis was conducted via liquid chromatography electrospray ionization tandem mass spectrometry (LC-ESI-MS/MS). Mobile phases were comprised with acetonitrile–water and isopropanol/acetonitrile solutions, both containing 10 mmol/L ammonium acetate and 0.1% formic acid.
Supplementary Figure S9 DC646 antagonizes intestinal FXR, thereby reducing ceramide production and inducing GLP-1 production. (a) Relative mRNA expression of ileal FXR signaling. (b) Ileal ceramide levels (the data are normalized and centralized). (c) Relative mRNA expression of ileal ceramide-synthesis related genes. (d) Serum GLP-1 levels. HFD-fed mice were gavaged with vehicle or 10 mg/kg or 30 mg/kg DC646. n = 8 in each group. Data are presented as the mean ± SEM and analyzed by one-way ANOVA with Dunnett’s post hoc test. ^*P < 0.05, ^**P < 0.01, and ^***P < 0.001, versus HFD + Vehicle group.

[5] = Subacute toxicity test; format: in vivo, mouse
Experimental: For the subacute toxicity test of DC646, oral injection of vehicle, 20 mg/kg, 100 mg/kg, or 200 mg/kg DC646 to C57BL/6 male mice was carried out for 7 days. During the week, the body weight and food/water intake were monitored every day. The serum, liver, kidneys, brain, heart, lungs, spleen, testicle, and epididymis were weighed and collected 2 h after the final dosing.
Supplementary Figure S10 Subacute toxicity test of DC646 at 20 mg/kg, 100 mg/kg, or 200 mg/kg. (a) Strategy of animal experiment. (b) Body weight. (c) Food intake. (d) Water intake. (e) Representative pictures of organ morphologies. (f) 1/3 Intestine length and colon length. (g) Organ weight. (h and i) Serum ALT (h) and AST(i) levels. (j) H&E staining of heart, liver, spleen, lung, and kidney. n = 5 in each group. Data are presented as the mean ± SEM and analyzed by one-way ANOVA with Dunnett’s post hoc test.

[6] = system: FXR signaling (Shp) in intestinal organoids; experiment: FXR target gene expression in intestinal organoids; format: cell-based, mouse; conditions: DC646 50 μmol/L, GW4064 10 μmol/L, 24 h
Text: as §1
as §3, with “group. […]” for “group.”

[7] = C57BL/6 male mice, oral 20, 100, 200 mg/kg, 7 days

With CC(C)C[C@@H]1NC(=O)[C@@H]2CN(CCO2)c2cccc3c2c(cn3[Si](C(C)C)(C(C)C)C(C)C)C[C@H](NS(=O)(=O)C(F)(F)F)C(=O)OCCCCNC(=O)[C@H](CC(C)C)NC(=O)[C@@H]2CN(CCO2)c2cccc3c2c(cn3[Si](C(C)C)(C(C)C)C(C)C)C[C@H](NS(=O)(=O)C(F)(F)F)C(=O)OCCCCNC1=O [DC646, N,N'-((1^2R,1^4S,16^2R,16^4S,4R,13R,19R,28R)-13,28-diisobutyl-5,12,15,20,27,30-hexaoxo-2^1,17^1-bis(triisopropylsilyl)-2^1H,17^1H-6,21-dioxa-11,14,26,29-tetraaza-1(4,2),16(2,4)-dimorpholina-2,17(4,3)-diindolacyclotriacontaphane-4,19-diyl)bis(1,1,1-trifluoromethanesulfonamide)] the “Pxr, Vdr and Nr1i3 target gene expression” value [1] was “no significant impact”, the “Agonistic activity (SRC2-3 recruitment, compound alone)” value ([2]; DC646 alone, Fig. 2e) was “no agonistic activity” and the “Disruption of hFXRα-LBD-SRC2-3 interaction induced by Ivermectin” value ([2]; DC646 at 11 μmol/L, Ivermectin 5 μmol/L) was “competitively disrupted”. The pIC50 ([2]; IC50, DC646 combined with CDCA, adding order: DC646 combined with CDCA, Fig. 4b) was 4.91, the pIC50 ([2]; IC50 in recruiting the SRC2-3 peptide in the presence of CDCA, in the presence of CDCA (50 μmol/L), Fig. 2f) was 5.05 and the “Effect on CDCA agonism when adding DC646 before CDCA” value ([2]; adding order: CDCA after DC646) was “completely blunted the agonism of CDCA”. For the same compound, the “Antagonism when adding DC646 after CDCA” value ([2]; adding order: DC646 after CDCA) was “no antagonism”, the “Disruption of hFXRα-LBD-NcoR2 interaction induced by Ivermectin” value [3] was “competitively disrupted” and the “Ceramide levels in the ileum” value [4] was “reduced”. The “Serum GLP-1 levels” value [4] was “markedly increased”, the “FXR signaling in the ileum (mRNA levels of Shp and Fgf15)” value ([4]; dose-dependent) was “repressed” and the “Tolerated dose over minimum effective dose” value ([5]; 200 mg/kg versus minimum effective dose) was “more than 20 folds”. The Food/water intake ([5]; C57BL/6 male mice, oral 200 mg/kg, 7 days, normal body weight) was “mildly decreased”, the “Liver injury indicated by serum ALT and AST” value [5, 7] was “did not cause liver injury” and the “Organ morphology, small intestine and colon length, organ weight” value [5, 7] was “no difference”. For the same compound, the “Body weight and food/water intake” value ([5]; C57BL/6 male mice, oral 20 and 100 mg/kg, 7 days) was “did not affect”, the MTD at 168 h ([5]; mouse, in vivo, C57BL/6 male mice, oral, 7 days, highest dosage tested, read-out: Highest dosage with good tolerance) was 200 mg/kg and the “mRNA expression of GW4064-induced FXR target gene Shp” value ([6]; Fxr^△IE organoids) was “not observed”. The “mRNA expression of GW4064-induced FXR target gene Shp” value ([6]; WT organoids) was “effectively reversed”.
